Data published in patent US11045485B2, “Glycomimetic inhibitors of PA-IL and PA-IIL lectins” (GlycoMimetics, Inc., priority 2016, dated 2021).
“And” between values parts separate entries of the source, which are not always exact repeats. Equal values may be shown once.

What was measured:
[1] = tested on: Pseudomonas aeruginosa strain PaO; assay: Acute lung injury model, compound co-administered with bacteria; assay type: in vivo, male BalB/c mice
Procedure: Cohorts of male BalB/c mice (n=5/group) were infected intranasally with either a low (1-2×10^6 CFU) or a high (1-2×10^7 CFU) inoculum of Pseudomonas aeruginosa strain PaO, in combination with saline or multiple dose levels ([…], corresponding to 10, 25 and 50 mg/kg, respectively) of glycomimetic compound (I) or compound A. The bacteria were coadministered with glycomimetic compound (I) or compound A directly into the lungs of each mouse by intratracheal (i.t.) injection via the oropharynx using a 24-gauge feeding needle (total volume of 0.05 mL).
The animals were observed daily beginning 24 hours post infection and cumulative clinical (disease) scores were determined for each mouse (FIGS. 4 and 6). Parameters assessed were: (a) for appearance (smooth→bristly); (b) body temperature (normal→cold); (c) movement (moving→prostate); and (d) weight loss. Clinical scoring ranged from 0 (normal, uninfected appearance) to 10 (severely compromised).
Animals were observed daily for morbidity/mortality and day of death recorded. Kaplan-Meier analysis was used to estimate survival function from life-span data and statistical values derived from a log rank test.

[2] = tested on: Pseudomonas aeruginosa PAO1 strain; assay: Acute P. aeruginosa-induced infection in mouse, association with tobramycin; assay type: in vivo, male C57BL6/J mice
Procedure: (§1) Pseudomonas aeruginosa PAO1 strain is a sequenced, well-characterized strain used as reference strain. Bacteria were grown overnight at 37° C. in Lysogeny Broth Lennox (LB) (BD Europe, Le pont de Claix, France) under orbital shaking (300 rpm) from frozen stock. A secondary culture was performed during 2 hours and before harvesting the bacteria by centrifugation (2000 g, 5 min), and two washings with sterile phosphate-buffered saline (PBS). Turbidity was then approximated by measurement of optical density at A600 (Ultrospec 10 Cell Density Meter, General Electric, Fairfield, Conn.) and verified by serial dilution and plating on LB agar Plates.
(§2) Vehicle was phosphate buffered saline, and test solutions are Glycomimetic Compound (I) 40 mM in PBS, and Compound A 40 mM in PBS. Test articles were provided by GlycoMimetics and stored at −20° C. Tobramycin (1 g) was provided by Laboratoire EREMPHARMA (25 rue Greffulhe—92300 Levallois) and stored at (+4° C.).
(§3) Male C57BL6/J mice (8 weeks old) purchased from Janvier Labs (Route du Genest, 53940 Le Genest-Saint-Isle) were housed a pathogen-free unit of the Lille University Animal Care Facility and allowed food and water ad lib.
(§4) Mice were anesthetized briefly with inhaled sevoflurane (Sevorane™, Abbott, Queensborough, UK), allowing maintenance of spontaneous breathing after which 50 μL of the bacterial solution were administered intranasally representing a total of 1.10^6 CFU/mouse (except for tobramycin study conducted with lethal inoculate of […]). Control mice receive 50 μL of PBS. All mice were sacrificed at 24 h (except for survival studies, mice were monitored on weight and clinical score 96 h post bacterial infection). Glycomimetic Compound (I) or Compound A were administered IN with the inoculum or post-infection (see FIG. 8 and FIG. 12). In appropriate groups, mice were treated 24 h after infection with 12 mg/kg tobramycin administered intraperitoneally.
(§5) For each group, treatment effect was measured with the disease score and daily mortality rate post challenge. The evolution of the disease score assessing the clinical appearance of the animals was evaluated on 4 items scored from 0 to 10 summarized in Table 1 (body temperature, appearance of the bristle, behavior and weight loss; 0: healthy mice, 10 moribund mice). All disease score assessments were performed by two experimenters throughout the study.
(§6) Statistical analysis was performed using Prism 5 software (Graph-Pad Software, San Diego Calif.). Values are expressed as mean±SEM. Comparison groups were analysed with the nonparametric Mann-Whitney test. Survival curves were analysed using Log-rank (Mantel-Cox) test. *p<0.05; ** p<0.01; *** p<0.001 Results are mean+/−Standard error.
Mice, 8 weeks old C57Bl/6J male, received intranasally 2.10^7 CFU of PAO1 and Glycomimetic Compound (I) or Compound A at different time points with or without an intraperitoneal injection of tobramycin 12 mg/kg (FIG. 12).

[3] = tested on: Pseudomonas aeruginosa PAO1 strain; assay: Acute P. aeruginosa-induced infection in mouse, monotherapy at different inoculation times; assay type: in vivo, male C57BL6/J mice
Procedure: as §1, §2, §3, §4, §5, §6
Mice, 8 weeks old C57Bl/6J male, received intranasally 1.10^7 CFU of PaO1 and Glycomimetic Compound (I) or Compound A at different time points, as described in FIG. 8.
We analyzed weight loss, clinical disease score and mortality. Fourteen independent cohorts of 5 mice each were tested. Each cohort included an equal representation of testing conditions. All stage 1 cohorts were tested over 4 days. At the conclusion of Stage 1, there was a total of 10 mice for each of the above 7 treatment groups.

PA-IIL = target: T1, PA-IIL (Pseudomonas aeruginosa, UniProt Q9HYN5); assay: Assay for PA-IIL antagonist activity (competition with fucose-PAA-biotin/streptavidin-HRP on coated plate); assay type: binding
T1 construct: Dr. Wimmerova, Masaryk University, Brno, Czech Republic (academic supplier)
T1 sequence (Q9HYN5 entry or part of it): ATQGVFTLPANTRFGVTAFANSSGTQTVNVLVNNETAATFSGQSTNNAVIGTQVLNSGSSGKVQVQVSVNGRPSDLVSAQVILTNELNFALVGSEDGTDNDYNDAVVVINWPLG
Procedure: (§7) Wells of a microtiter plate (plate 1) are coated with PA-IIL (Dr. Wimmerova, Masaryk University, Brno, Czech Republic) by incubation for 2 hrs at 37° C. The wells are then blocked for 2 hrs by the addition of 1% bovine serum albumin (BSA) diluted in TBS-Ca (50 mM TrisHCl, 150 mM NaCl, 2 mM CaCl2 pH 7.4) mixed 1:1 v/v with Stabilcoat (Surmodics, Eden Prairie, Minn.). In a second low-binding round-bottom microtiter plate (plate 2), test antagonists are serial diluted in 1% BSA in TBS-Ca/Stabilcoat (60 μl/well). Preformed conjugates of fucose-PAA-biotin (GlycoTech Corp, Gaithersburg, Md.) mixed with streptavidin-HRP (KPL Labs, Gaithersburg, Md.) are added to each well of plate 2 (60 μl/well of 2 μg/ml). Plate 1 is then washed with TBS-Ca and 100 μl/well are transferred from plate 2 to plate 1. After incubation at room temperature for 2 hrs, plate 1 is washed and 100 μl of TMB reagent (KPL Labs, Gaithersburg, Md.) is added to each well. After incubation for 5 minutes at room temperature, the reaction is stopped by adding 100 μl/well of 1M H3PO4 and the absorbance of light at 450 nm is determined by a microtiter plate reader. Absorbance is plotted as a function of antagonist concentration and the concentration at which 50% maximal absorbance (IC50) is obtained is determined from the plot.

[4] = Uninfected mice treated with compound (non-specific toxicity control); assay type: in vivo; settings: 40 mM
PA-IL = target: T2, PA-IL (Pseudomonas aeruginosa, UniProt Q05097); assay: Assay for PA-IL antagonist activity (competition with α-galactose-PAA-biotin/streptavidin-HRP on coated plate); assay type: binding
T2 construct: purchased Sigma-Aldrich, St. Louis, Mo
T2 sequence (Q05097 whole entry): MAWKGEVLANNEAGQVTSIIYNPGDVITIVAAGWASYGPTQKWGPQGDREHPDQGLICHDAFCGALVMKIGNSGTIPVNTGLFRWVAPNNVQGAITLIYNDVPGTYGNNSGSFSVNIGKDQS
Procedure: as §7, with “PA-IL (Sigma-Aldrich, St. Louis, Mo.)” for “PA-IIL (Dr. Wimmerova, Masaryk University, Brno, Czech Republic)”, “CaCl2)” for “CaCl2”, “α-galactose-PAA-biotin” for “fucose-PAA-biotin”

Pseudomonas aeruginosa = assay: Acute lung injury model, treatment with tobramycin; assay type: in vivo, mice
Procedure: Mice were co-administered 2×10^7 CFU Pseudomonas aeruginosa with or without compound A or glycomimetic compound (I) in combination with 12 mg/kg tobramycin. The tobramycin was administered intraperitoneally 6 hours after bacterial challenge.

[5] = 2.10^7 CFU PAO1, agent alone, H4 administration

SMILES	survival ([1]; high inoculum, co-administered 20 mM, at 96 hr) [%]	survival ([1]; high inoculum, co-administered 40 mM, at 96 hr) [%]	survival ([1]; low inoculum 2×10^6 CFU, co-administered 40 mM compound, i.t.) [%]	survival [2, 5] [%]	survival ([2]; 2.10^7 CFU PAO1, association with tobramycin 12 mg/kg i.p., H4 administration) [%]	survival ([2]; 2.10^7 CFU PAO1, association with tobramycin 12 mg/kg i.p., at 6 h) [%]	score disease ([2]; with tobramycin, at 4 hours)	survival ([3]; 1.10^7 CFU PaO1, compound administered after 4 hours of infection) [%]	survival ([3]; 1.10^7 CFU PaO1, compound administered after 6 hours of infection)	survival ([3]; 1.10^7 CFU PaO1, compound administered after one hour of infection) [%]	survival ([3]; 1.10^7 CFU PaO1, compound administered with the bacteria) [%]	effect on weight and score disease ([3]; monotherapy, FIGS. 10 and 11)	IC50 (PA-IIL) [nM]	morbidity or mortality [4]	IC50 (PA-IL) [µM]	survival (Pseudomonas aeruginosa; 8 mM in combination with 12 mg/kg tobramycin) [%]	survival (Pseudomonas aeruginosa; 20 mM in combination with 12 mg/kg tobramycin) [%]	survival (Pseudomonas aeruginosa; 40 mM in combination with 12 mg/kg tobramycin) [%]	survival benefit (Pseudomonas aeruginosa; 8, 20 and 40 mM co-administered with bacteria, plus 12 mg/kg tobramycin i.p. 6 hours after challenge)	survival ([2]; 2.10^7 CFU PAO1, agent alone, at 6 h) [%]
CC1CCC[C@@H](O[C@@H]2OC(CO)[C@H](O)C(O[C@H]3OC(CO)[C@H](O)C(O)C3O)C2O)C1OC1O[C@@H](C)C(O)C(O)[C@@H]1O (stereo partly drawn) [Glycomimetic Compound (I)]	60	100	100	30	90	50	lower score	40	25% and 20%	54.5	90	superior to Compound A	440	no morbidity or mortality was observed	7.2	40	100	100	significantly increased	–
NC[C@H]1O[C@H](O[C@H]2[C@H](O)[C@@H](O[C@H]3O[C@H](CO)[C@@H](O)[C@H](N)[C@H]3O)[C@H](N)C[C@@H]2N)[C@H](N)C[C@@H]1O [tobramycin, reference compound]	–	–	–	70	–	–	–	–	–	–	–	–	–	–	–	–	–	–	–	10
